Laboratory results published in patent US20230139171A1 (SITA Information Networking Computing UK Limited, priority 2019, published 2023).
pIC50: −log10 of the molar value.

Tests used:
[1] = molecular target: T1, human TLR8 (Homo sapiens, UniProt Q9NR97); experiment: TLR8 inhibition reporter assay (HEK-Blue cells, SEAP reporter, R848 stimulation); assay type: cell-based; conditions: HEK-Blue cells overexpressing human TLR8, SEAP reporter, R848 15.9 μM; read-out: TLR8 IC50
T1 construct: host or cells: HEK-Blue cells
T1 sequence (Q9NR97 27-1041): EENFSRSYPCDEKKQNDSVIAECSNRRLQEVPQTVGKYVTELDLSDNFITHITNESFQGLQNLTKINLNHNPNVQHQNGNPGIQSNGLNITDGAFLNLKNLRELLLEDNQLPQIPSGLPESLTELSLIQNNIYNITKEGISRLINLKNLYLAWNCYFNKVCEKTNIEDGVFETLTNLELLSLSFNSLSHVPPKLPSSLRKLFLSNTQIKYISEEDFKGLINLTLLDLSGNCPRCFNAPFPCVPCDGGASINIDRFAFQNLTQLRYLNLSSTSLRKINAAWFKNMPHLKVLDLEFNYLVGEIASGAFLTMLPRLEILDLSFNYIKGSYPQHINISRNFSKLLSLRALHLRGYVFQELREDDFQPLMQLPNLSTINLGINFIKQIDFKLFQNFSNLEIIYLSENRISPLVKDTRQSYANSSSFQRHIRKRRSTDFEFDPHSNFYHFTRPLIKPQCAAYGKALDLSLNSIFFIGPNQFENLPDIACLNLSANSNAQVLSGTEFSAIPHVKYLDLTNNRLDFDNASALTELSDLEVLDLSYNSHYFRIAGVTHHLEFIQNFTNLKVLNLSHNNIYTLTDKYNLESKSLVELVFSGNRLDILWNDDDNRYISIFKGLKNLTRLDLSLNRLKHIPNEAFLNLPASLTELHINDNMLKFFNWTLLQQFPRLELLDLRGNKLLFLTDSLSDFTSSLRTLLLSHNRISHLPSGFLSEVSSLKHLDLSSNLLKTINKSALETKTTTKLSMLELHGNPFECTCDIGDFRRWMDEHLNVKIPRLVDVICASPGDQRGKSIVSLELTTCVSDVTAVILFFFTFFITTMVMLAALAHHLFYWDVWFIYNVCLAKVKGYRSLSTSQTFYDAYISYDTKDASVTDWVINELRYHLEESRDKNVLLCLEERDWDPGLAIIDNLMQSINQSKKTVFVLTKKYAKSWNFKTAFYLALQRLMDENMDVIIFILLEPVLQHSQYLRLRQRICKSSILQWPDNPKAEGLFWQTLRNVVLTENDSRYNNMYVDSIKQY
Summary of the method: (§1)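 Human TLR7/8/9 HEK-Blue reporter lines; dose range 0.05 nM–50 μM; 30 min RT preincubation; stimulus gardiquimod 7.5 μM / R848 15.9 μM / ODN2006 5 nM respectively; 22 h, 37 °C; SEAP detected colorimetrically.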

[2] = molecular target: T2, human TLR9 (Homo sapiens, UniProt Q9NR96); experiment: TLR9 inhibition reporter assay (HEK-Blue cells, SEAP reporter, ODN2006 stimulation); assay type: cell-based; conditions: HEK-Blue cells overexpressing human TLR9, SEAP reporter, ODN2006 5 nM
T2 construct: host or cells: HEK-Blue cells
T2 sequence (Q9NR96 26-1032): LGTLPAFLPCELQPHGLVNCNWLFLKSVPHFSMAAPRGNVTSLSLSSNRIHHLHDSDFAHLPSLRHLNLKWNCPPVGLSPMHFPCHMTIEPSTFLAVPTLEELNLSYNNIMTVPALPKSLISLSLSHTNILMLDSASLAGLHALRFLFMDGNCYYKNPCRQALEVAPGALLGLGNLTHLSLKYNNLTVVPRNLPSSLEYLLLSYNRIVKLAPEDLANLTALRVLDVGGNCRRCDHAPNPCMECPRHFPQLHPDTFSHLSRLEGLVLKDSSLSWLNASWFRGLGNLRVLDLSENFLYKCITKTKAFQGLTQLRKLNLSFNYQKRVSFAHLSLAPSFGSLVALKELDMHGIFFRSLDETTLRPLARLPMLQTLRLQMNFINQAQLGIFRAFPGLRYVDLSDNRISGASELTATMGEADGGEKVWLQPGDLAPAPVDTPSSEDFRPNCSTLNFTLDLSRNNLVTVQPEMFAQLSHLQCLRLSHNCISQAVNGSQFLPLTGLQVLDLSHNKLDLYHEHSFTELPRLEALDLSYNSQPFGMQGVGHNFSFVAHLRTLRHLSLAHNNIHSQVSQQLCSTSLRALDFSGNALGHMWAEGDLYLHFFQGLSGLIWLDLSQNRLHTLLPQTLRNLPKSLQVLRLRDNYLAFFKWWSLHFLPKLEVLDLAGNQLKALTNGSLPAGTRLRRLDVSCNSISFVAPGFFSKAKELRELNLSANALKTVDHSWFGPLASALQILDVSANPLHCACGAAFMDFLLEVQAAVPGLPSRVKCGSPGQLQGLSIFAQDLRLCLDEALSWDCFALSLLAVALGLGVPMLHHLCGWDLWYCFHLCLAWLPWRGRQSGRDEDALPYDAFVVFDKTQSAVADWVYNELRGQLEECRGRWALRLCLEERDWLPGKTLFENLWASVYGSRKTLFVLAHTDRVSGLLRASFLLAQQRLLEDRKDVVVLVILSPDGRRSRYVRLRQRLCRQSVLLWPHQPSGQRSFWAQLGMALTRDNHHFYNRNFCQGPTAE
Summary of the method: as §1

- pIC50 [1]: 8.86
- pIC50 [2]: 5.00
Compound: COc1cc(-c2[nH]c3sc(C4CCC(NC5COC5)CC4)nc3c2C(C)C)cn2ncnc12 (single isomer, unassigned) [Example 65, N-(4-(6-isopropyl-5-(8-methoxy-[1,2,4]triazolo[1,5-a]pyridin-6-yl)-4H-pyrrolo[3,2-d]thiazol-2-yl)cyclohexyl)oxetan-3-amine]
